These are literature values, as cited in US9492406B2, “Pharmaceutical composition” (IPCA Laboratories Limited, priority 2012, dated 2016).

Read-outs that look alike come from different tables or passages of the source.

The term bioavailability denotes the share of a dose that reaches the circulation, judged against a reference dose that is usually intravenous.

Assay in series [1]: not given
This is another data set of the same source.

The conditions of series [2]: theophylline products of US2008248117.

For the compound `O=C1C(O)=C([C@H]2CC[C@H](c3ccc(Cl)cc3)CC2)C(=O)c2ccccc21` [Atovaquone, trans-2-[4-(4-chlorophenyl)cyclohexyl]-3-hydroxy-1,4-naphthoquinone], the bioavailability (microfluidized microparticles supplied as suspension, with fat diet) was 46-48%; the bioavailability entry (oral non-sized suspension) is listed as “about 23%”; the bioavailability (oral non-sized suspension, under fat fed condition) is recorded as 46-48%; the bioavailability (tablet formulations) is reported as ~12%.
As for `NC(=O)N1c2ccccc2C=Cc2ccccc21` [Carbamazepine crystals, Carbamazepine], the “Release after 15 min in %” value in series [1] (carbamazepine products of US2008248117, 15 min) is reported as 22%. For the same compound, the “Release after 30 min in %” value in series [1] (carbamazepine products of US2008248117, 30 min) is 53%.
As to `Cn1c(=O)c2[nH]cnc2n(C)c1=O` [Theophylline crystals, Theophylline], in series [1] (theophylline products of US2008248117, 15 min), the “Release after 15 min in %” value is recorded as 34%. Besides, the “Release after 30 min in %” value in series [1] (theophylline products of US2008248117, 30 min) is listed as 78%. Moreover, the Resistance to crushing in series [2] was 140.
